Reference: patent US10526317B2, “Benzocyanine compounds” (PIERCE BIOTECHNOLOGY, INC., priority 2012, dated 2020)
“Also recorded” adds a separate entry of the source.

What was measured:
lamin A [1] = assay: Immunofluorescence detection of lamin A in U2OS cells, dye-GAM secondary (FIG. 29A-C and repeat); format: cell-based, human; conditions: for Mean Total Intensity, Negative control: no primary antibody
Procedure: In the indicated experiments, the inventive compounds and commercial dye were evaluated for immunofluorescence in a cell based assay using the following protocol. Frozen U20S cell plates which were stored at −80° C. were thawed for 45 minutes at 50° C. Storage buffer (PBS) was removed and the cells were permeabilized for 15 minutes with 0.1% Triton-X100 in 1×PBS buffer (100 μl/well). The cell plate was blocked for 60 minutes in 2% BSA/PBS-0.1% Triton-X100. Primary antibody, either rat anti-Grp94 (5 μg/ml), mouse anti-lamin A (10 μg/ml), or rabbit anti-lamin B1 (10 μg/ml), diluted in 2% BSA/PBS-0.1% Triton-X100 was added to the plate and incubated for 1 hour at room temperature. Control wells contained only 2% BSA/PBS-0.1% Triton-X100 blocker. After incubation, the antibody solution was removed from the plate and the plate was washed three times with 100 μl/well of PBS-0.5% Tween-20 and one time with 100 μl/well PBS. GARat, GAM, or GAR secondary antibodies labeled with various molar excess of the inventive or commercial compound were diluted to 4 μg/ml in PBS and incubated for 1 hour at room temperature. The plates were washed three times with 100 μl/well of PBST and once with 100 μl/well PBS, and Hoechst (diluted to 0.1 μg/ml in PBS) was added to each well (100 μl/well). The plates were scanned on ArrayScan Plate Reader or ToxInsight Instrument.
Quantitative analysis of a repeat experiment of FIG. 29A-C are shown below.

CEA = system: CEA; design: species or system nu/nu mice; conditions: mouse
Procedure: The inventive compounds are used for in vivo imaging as described in J. Gastrointest Surg (2008) 12:1938-1950. Briefly, human pancreatic cell lines are maintained in media supplemented with penicillin/streptomycin at 37° C. with 5% CO2. Mouse anti-CEA antibody and Control Mouse IgG (in PBS with 0.20% sodium azide) are conjugated to V08-15173. The dye is reconstituted at 10 mg/ml in DMF and then added to the antibody at a 10 molar excess. The reaction is carried out for one hour at room temperature. The samples are then dialyzed against 3×2 L of PBS. The cell lines are plated in 96-well plates at 5×10^4 cells per well. After 48 hours culture in appropriate media, the cells are incubated with 1 μg of V08-15173 labeled anti-CEA antibody or V08-15173-labeled control mouse IgG for four hours at 37° C. The cells are then washed three times with PBS and then imaged with an inverted Nikon De-485 microscope and Spot camera RD.
Surgical procedures and intravital imaging are performed with the animals anesthesized by intramuscular injection of 0.02 ml of 50% ketamine, 38% xylazine and 12 acepromazine maleate. Human pancreatic and colorectal cancer cell lines are harvested by trypsinization and washed twice with serum free medium and washed twice with serum-free medium. Cells (1×10^6 in 100 μl of serum-free media) are injected subcutaneously within 30 minutes of harvesting over the right flank in female nu/nu mice between 4-6 weeks of age. Subcutaneous tumors are allowed to grow for 7-14 days until they reached diameter of 1-2 mm prior to the delivery of conjugated antibody. For ASPC-1 implants, the cells are harvested by trpsinization and washed 3× in serum-free media. The cells are resuspended in serum-free media. The cells are resuspended in serum-free media at 5×10^6/ml. A volume of 200 μl of the cell suspension is then injected directly into the peritoneal cavity within 30 minutes of harvesting.
For antibody delivery, one to two weeks after subcutaneous, orthotopic, or intraperitoneal tumor implantation, animals are given intravenous (i.v.) injection of either conjugated anti-CEA or conjugated control IgG antibody diluted in PBS to a final volume of 100 μl. All i.v. injections are done via the tail vein. For the dose-response experiment, the antibody dose is 75 μg. For the in vivo time course, the animals are anesthesized and imaged at 30 min, 1, 2, 6, 24 hours and 8 and 15 days after systemic antibody delivery.
The inventive compounds are used for in vivo imaging as described in J. Gastrointest Surg (2008) 12:1938-1950. Briefly, human pancreatic cell lines are maintained in media supplemented with penicillin/streptomycin at 37° C. with 5% CO2. Mouse anti-CEA antibody and Control Mouse IgG (in PBS with 0.20% sodium azide) are conjugated to 779 Compound 1. […]

lamin A [2] = assay: Immunofluorescence, U2OS cells, mouse anti-lamin A, dye-GAM secondary (FIG. 25); format: cell-based, human
Procedure: The inventive compounds and commercial dye were evaluated for immunofluorescence in a second cell based assay using the following protocol. Frozen U20S cell plates stored at −20° C. were placed overnight at 4° C. Storage buffer (PBS) was removed and the cells were permeabilized for 15 min (100 μl/well) with 0.1% Triton-X100 in 1×PBS buffer. Plates were blocked for 30 min in 2% BSA in 1× PBS-0.1% Trion-X100. Primary antibodies diluted in 2% BSA in 1×PBS-0.1% Trion-X100 were added to the plates (column 1-11; column 12 included only blocker) and incubated five hours at room temperature. Mouse anti-lamin A was added at 2 μg/ml and rabbit anti-lamin B1 was added at 4 μg/ml. After incubation, the antibody solution was removed from the plates and the plates were washed PBS-0.5% Tween-20 (2×100 μl/well). Next, GAM and GAR secondary antibodies labeled with DyLight 680-NHS, DyLight 680B-NHS, 679 Compound 1-NHS, and Cy5.5 Mono Ester were diluted to 4 μg/ml in PBS and incubated with the cells for one hour at room temperature. […], DyLight 680B-NHS, 679 Compound 1-NHS, […] PBS and then serially diluted 1:1 in the plate to the following concentrations: 2 μg/ml, 1 μg/ml, 0.5 μg/ml, 0.25 μg/ml, 0.125 μg/ml and/or 0.0625 μg/ml. The plates were washed 3× with 100 μl/well PBS, and Hoechst stain diluted to 0.1 μg/ml in PBS was added to each well (100 μl/well). The plates were scanned on ArrayScan Plate Reader for imaging and quantitation.
Quantitative analysis of FIG. 25 data, expressed as Mean Total Intensity, which is the average total intensity of all pixels within a defined area or defined primary object such as a nucleus, is shown below.

## COCCOCCOCCOCC[N+]1=C(/C=C/C=C/C=C2/N(CCOCCOCCOCCOCCC(=O)ON3C(=O)CCC3=O)c3ccc4c(S(=O)(=O)[O-])cc(S(=O)(=O)O)cc4c3C2(C)CCOCCOCCOCCOC)C(C)(CCOCCOCCOCCOC)c2c1ccc1c(S(=O)(=O)O)cc(S(=O)(=O)O)cc21 (stereo not drawn) [Compound V08-15173]
Lamin A [1]; 2.5 X molar excess
  S/B: 2.9
Lamin A [1]; 5.0 X molar excess
  S/B: 4.9
Lamin A [1]; 7.5 X molar excess
  S/B: 6.0
Lamin A [1]; 10 X molar excess
  S/B: 4.9
Lamin A [1]; 15 X molar excess
  S/B: 4.6
Lamin A [1]; GAM conjugate 4 μg/ml, 2.5 X molar excess
  Mean Total Intensity (Average): 17366
Lamin A [1]; GAM conjugate 4 μg/ml, 5.0 X molar excess
  Mean Total Intensity (Average): 32820
Lamin A [1]; GAM conjugate 4 μg/ml, 7.5 X molar excess
  Mean Total Intensity (Average): 42876
Lamin A [1]; GAM conjugate 4 μg/ml, 10 X molar excess
  Mean Total Intensity (Average): 47756
Lamin A [1]; GAM conjugate 4 μg/ml, 15 X molar excess
  Mean Total Intensity (Average): 49060
Lamin A [1]; GAM conjugates
  non-specific binding / specificity (in words): a minimal amount of non-specific binding; also recorded: little non-specific binding
Lamin A [1]; 2.5 X
  Mean Total Intensity, Negative control: 5966
Lamin A [1]; 5.0 X
  Mean Total Intensity, Negative control: 6643
Lamin A [1]; 7.5 X
  Mean Total Intensity, Negative control: 7100
Lamin A [1]; 10 X
  Mean Total Intensity, Negative control: 9690
Lamin A [1]; 15 X
  Mean Total Intensity, Negative control: 10779
Lamin A [1]; repeat experiment, 2.5 X
  S/B: 9.8
  Mean Total Intensity, Negative control: 12053
Lamin A [1]; repeat experiment, 2.5 X molar excess
  Mean Total Intensity (Average): 118440
Lamin A [1]; repeat experiment, 5 X
  S/B: 19.4
  Mean Total Intensity, Negative control: 9441
Lamin A [1]; repeat experiment, 5 X molar excess
  Mean Total Intensity (Average): 183078
Lamin A [1]; repeat experiment, 10X
  S/B: 29.9
  Mean Total Intensity, Negative control: 13094
Lamin A [1]; repeat experiment, 10X molar excess
  Mean Total Intensity (Average): 391473
Lamin A [1]; repeat experiment, 15 X
  S/B: 12.2
  Mean Total Intensity, Negative control: 17260
Lamin A [1]; repeat experiment, 15 X molar excess
  Mean Total Intensity (Average): 211270
CEA
  Ex vivo analysis of the vital organs (in words): presence of dye predominantly in the liver with some signal detected in the spleen intestines and lungs
CEA; in vivo
  post-experiment surgical exposure (in words): accumulation of dye in the liver, bladder, and a region of inflammation in the subcutaneous tissue

## Cy5.5
Lamin A [2]; GAM conjugated at 2X molar excess
  Mean Total Intensity: 211945
Lamin A [2]; GAM conjugated at 3X molar excess
  Mean Total Intensity: 342208
Lamin A [2]; GAM conjugated at 4X molar excess
  Mean Total Intensity: 451111
